{"source": "ChEMBL document CHEMBL5523692", "about": "“Discovery of novel biaryl benzoxazepinones as dual-mode receptor-interacting protein kinase-1 (RIPK1) inhibitors” (Bioorg Med Chem, 2024)"}
{"test_system": "HT-29", "assay": "Anti-necroptic activity against human HT-29 cells assessed as cell viability pretreated with compound followed by TNF-alpha/Smac mimetic/Z-VAD-FMK stimulation for 16 hrs by Cell Titer Glo assay", "assay_type": "functional, cell-based", "settings": "not given", "units": {"EC50": "nM"}}
{"smiles": "CN1C(=O)[C@@H](NC(=O)c2n[nH]c(Cc3ccccc3)n2)COc2ccc(-c3ccccc3C#N)cc21", "EC50": 3}
{"smiles": "CN1C(=O)[C@@H](NC(=O)c2n[nH]c(Cc3ccccc3)n2)COc2ccc(-c3ccccc3)cc21", "EC50": 8.3}
{"smiles": "CN1C(=O)[C@@H](NC(=O)c2n[nH]c(Cc3ccccc3)n2)COc2ccc(-c3cncnc3)cc21", "EC50": 5.8}
{"smiles": "Cc1ccc(-c2ccc3c(c2)N(C)C(=O)[C@@H](NC(=O)c2n[nH]c(Cc4ccccc4)n2)CO3)cc1", "EC50": 10.9}
{"smiles": "CN1C(=O)[C@@H](NC(=O)c2n[nH]c(Cc3ccccc3)n2)COc2ccc(-c3ccccc3Cl)cc21", "EC50": 20.3}
{"smiles": "CN1C(=O)[C@@H](NC(=O)c2n[nH]c(Cc3ccccc3)n2)COc2ccc(-c3ccco3)cc21", "EC50": 3.8}
{"smiles": "Cc1cccc(-c2ccc3c(c2)N(C)C(=O)[C@@H](NC(=O)c2n[nH]c(Cc4ccccc4)n2)CO3)c1", "EC50": 14.1}
{"smiles": "Cc1ccccc1-c1ccc2c(c1)N(C)C(=O)[C@@H](NC(=O)c1n[nH]c(Cc3ccccc3)n1)CO2", "EC50": 82.7}
{"smiles": "CN1C(=O)[C@@H](NC(=O)c2n[nH]c(Cc3ccccc3)n2)COc2ccc(-c3ccccc3F)cc21", "EC50": 7.6}
{"smiles": "CN1C(=O)[C@@H](NC(=O)c2n[nH]c(Cc3ccccc3)n2)COc2ccc(-c3cccc(O)c3)cc21", "EC50": 11.7}
{"smiles": "CN1C(=O)[C@@H](NC(=O)c2n[nH]c(Cc3ccccc3)n2)COc2ccc(-c3ccccc3O)cc21", "EC50": 60}
{"smiles": "CN1C(=O)[C@@H](NC(=O)c2n[nH]c(Cc3ccccc3)n2)COc2ccc(-c3ccoc3)cc21", "EC50": 3.4}
{"smiles": "CN1C(=O)[C@@H](NC(=O)c2nnc(Cc3ccccc3)[nH]2)COc2ccccc21", "note": "[GSK2982772]", "EC50": 2.9}
{"smiles": "CN1C(=O)[C@@H](NC(=O)c2n[nH]c(Cc3ccccc3)n2)COc2ccc(-c3ccccc3-c3ccccc3)cc21", "EC50": "> 100"}
{"test_system": "not listed separately", "assay": "Cytotoxicity against human HT-29 cells by Cell Titer Glo assay", "assay_type": "toxicity, cell-based", "settings": "not given", "units": {"CC50": "nM"}}
{"smiles": "CN1C(=O)[C@@H](NC(=O)c2n[nH]c(Cc3ccccc3)n2)COc2ccc(-c3ccccc3C#N)cc21", "CC50": "> 100000"}
{"smiles": "CN1C(=O)[C@@H](NC(=O)c2n[nH]c(Cc3ccccc3)n2)COc2ccc(-c3ccccc3)cc21", "CC50": "> 100000"}
{"smiles": "CN1C(=O)[C@@H](NC(=O)c2n[nH]c(Cc3ccccc3)n2)COc2ccc(-c3cncnc3)cc21", "CC50": "> 100000"}
{"smiles": "Cc1ccc(-c2ccc3c(c2)N(C)C(=O)[C@@H](NC(=O)c2n[nH]c(Cc4ccccc4)n2)CO3)cc1", "CC50": "> 100000"}
{"smiles": "CN1C(=O)[C@@H](NC(=O)c2n[nH]c(Cc3ccccc3)n2)COc2ccc(-c3ccccc3Cl)cc21", "CC50": "> 100000"}
{"smiles": "CN1C(=O)[C@@H](NC(=O)c2n[nH]c(Cc3ccccc3)n2)COc2ccc(-c3ccco3)cc21", "CC50": "> 100000"}
{"smiles": "Cc1cccc(-c2ccc3c(c2)N(C)C(=O)[C@@H](NC(=O)c2n[nH]c(Cc4ccccc4)n2)CO3)c1", "CC50": "> 100000"}
{"smiles": "Cc1ccccc1-c1ccc2c(c1)N(C)C(=O)[C@@H](NC(=O)c1n[nH]c(Cc3ccccc3)n1)CO2", "CC50": "> 100000"}
{"smiles": "CN1C(=O)[C@@H](NC(=O)c2n[nH]c(Cc3ccccc3)n2)COc2ccc(-c3ccccc3F)cc21", "CC50": "> 100000"}
{"smiles": "CN1C(=O)[C@@H](NC(=O)c2n[nH]c(Cc3ccccc3)n2)COc2ccc(-c3cccc(O)c3)cc21", "CC50": "> 100000"}
{"smiles": "CN1C(=O)[C@@H](NC(=O)c2n[nH]c(Cc3ccccc3)n2)COc2ccc(-c3ccccc3O)cc21", "CC50": "> 100000"}
{"smiles": "CN1C(=O)[C@@H](NC(=O)c2n[nH]c(Cc3ccccc3)n2)COc2ccc(-c3ccoc3)cc21", "CC50": "> 100000"}
{"smiles": "CN1C(=O)[C@@H](NC(=O)c2nnc(Cc3ccccc3)[nH]2)COc2ccccc21", "note": "[GSK2982772]", "CC50": "> 100000"}
{"smiles": "CN1C(=O)[C@@H](NC(=O)c2n[nH]c(Cc3ccccc3)n2)COc2ccc(-c3ccccc3-c3ccccc3)cc21", "CC50": "> 100000"}
{"test_system": "Mus musculus", "assay": "Anti-necroptic activity in TNF-alpha/Z-VAD-FMK-induced SIRS C57BL/6J mouse model assessed as survival rate at 2.5 mg/kg, po pre-administered via gavage for 1 hr followed by […] of Z-VAD-FMK stimulation for 15 mins and subsequent TNF-alpha stimulation for 45 mins and re-current […] of Z-VAD-FMK stimulation and measured after 60 hrs relative to control", "assay_type": "functional", "settings": "62 h, time 3720 min", "units": {"survival at 2.5 mg/kg": "%"}}
{"smiles": "CN1C(=O)[C@@H](NC(=O)c2nnc(Cc3ccccc3)[nH]2)COc2ccccc21", "note": "[GSK2982772]", "survival at 2.5 mg/kg": 50}
